Source: publication PMC9030691, “Toxicokinetics of β-Amanitin in Mice and In Vitro Drug–Drug Interaction Potential” (Pharmaceutics, 2022)
“Also recorded” adds a separate entry of the source.

How the values were obtained:
OAT3 = target: T1, OAT3 (Homo sapiens, UniProt Q8TCC7); experiment: OAT3 transport inhibition in HEK293-OAT3 cells; format: in vitro ADME; design: host or cells: HEK293 (TransportoCells); details: 0.1 μM probe substrate, HBSS pH 7.4, β-amanitin 0.01–250 μM (methods), n = 3, read-out: IC50, OAT3-mediated [3H]estrone-3-sulfate uptake
T1 sequence (Q8TCC7 1-542): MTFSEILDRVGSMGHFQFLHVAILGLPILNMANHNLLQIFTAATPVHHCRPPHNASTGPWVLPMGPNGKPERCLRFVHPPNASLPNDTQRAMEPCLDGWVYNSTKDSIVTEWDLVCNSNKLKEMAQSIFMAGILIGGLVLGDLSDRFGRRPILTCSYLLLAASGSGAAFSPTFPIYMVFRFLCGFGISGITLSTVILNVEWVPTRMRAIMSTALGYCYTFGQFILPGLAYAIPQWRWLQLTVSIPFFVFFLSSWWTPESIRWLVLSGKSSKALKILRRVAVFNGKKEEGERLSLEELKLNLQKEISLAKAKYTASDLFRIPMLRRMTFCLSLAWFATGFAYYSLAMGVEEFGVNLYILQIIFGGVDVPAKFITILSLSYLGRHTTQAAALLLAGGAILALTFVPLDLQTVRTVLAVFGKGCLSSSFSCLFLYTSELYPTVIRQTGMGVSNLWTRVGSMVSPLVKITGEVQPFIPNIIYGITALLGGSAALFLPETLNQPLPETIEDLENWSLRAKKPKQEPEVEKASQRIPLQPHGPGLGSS
Protocol: β-amanitin inhibition (IC50 values) of OCT1, OCT2, MATE2-K, OAT1, OAT3, Na^+/taurocholate co-transporting polypeptide (NTCP), OATP1B1, OATP1B3, P-glycoprotein (P-gp), and breast-cancer-resistant protein (BCRP) transport activities were assessed in HEK293 cells overexpressing individual transporters (TransportoCells™, Corning), LLC-PK1-P-gp (Corning), or LLC-PK1-BCRP (obtained from Dr. A.H. Schinkel, Netherlands Cancer Institute; Amsterdam, The Netherlands), as previously reported. Each incubation mixture was prepared to a final volume of 100 μL HBSS (pH 7.4) containing 0.1 μM probe substrates ([^3H]methyl-4-phenylpyridinium for OCT1 and OCT2, [^14C]metformin for MATE2-K, [^3H]p-aminohippuric acid for OAT1, [^3H]estrone-3-sulfate for OAT3, OATP1B1 and BCRP, [^3H]taurocholate for NTCP, [^3H]17-β-D-estradiol-glucuronide for OATP1B3, [^3H]digoxin for P-gp) and various concentrations of β-amanitin (0.01–250 μM), as previously described.

OATP1B3 = target: T2, OATP1B3 (Homo sapiens, UniProt Q9NPD5); experiment: Uptake of amanitins into HEK293-OATP1B3 cells; format: in vitro ADME; details: 50 μM amanitin, 5 min, 37 °C, HBSS, 20 min preincubation, with and without rifampin 100 μM, LC-HRMS, n = 3
T2 construct: expressed in transfected cells; host or cells: HEK293
T2 sequence (Q9NPD5 whole entry): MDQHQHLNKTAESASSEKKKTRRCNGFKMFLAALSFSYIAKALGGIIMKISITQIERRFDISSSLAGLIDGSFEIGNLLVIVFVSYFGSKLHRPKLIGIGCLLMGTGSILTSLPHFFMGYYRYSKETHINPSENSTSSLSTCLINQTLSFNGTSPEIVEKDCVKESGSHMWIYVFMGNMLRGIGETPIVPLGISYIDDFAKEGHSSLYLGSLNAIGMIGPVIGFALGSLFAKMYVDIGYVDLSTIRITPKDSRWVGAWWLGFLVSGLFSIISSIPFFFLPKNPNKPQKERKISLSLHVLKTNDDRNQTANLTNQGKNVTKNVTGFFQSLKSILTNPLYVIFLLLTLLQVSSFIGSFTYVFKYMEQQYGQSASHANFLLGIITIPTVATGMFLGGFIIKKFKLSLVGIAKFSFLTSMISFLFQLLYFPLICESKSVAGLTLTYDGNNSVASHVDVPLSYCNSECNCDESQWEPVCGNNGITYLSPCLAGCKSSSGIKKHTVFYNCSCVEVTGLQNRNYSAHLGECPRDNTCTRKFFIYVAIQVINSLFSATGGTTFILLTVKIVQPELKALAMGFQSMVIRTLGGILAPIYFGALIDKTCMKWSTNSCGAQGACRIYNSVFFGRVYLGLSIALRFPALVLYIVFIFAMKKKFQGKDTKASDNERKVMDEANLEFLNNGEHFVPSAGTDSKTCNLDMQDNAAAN
Protocol: HEK293 cells overexpressing OCT2, MATE2-K, OAT1, OAT3, OATP1B1, and OATP1B3 transporters and HEK293-control cells were maintained in a humidified atmosphere of 5% CO2 at 37 °C in DMEM supplemented with 10% FBS and 5 mM non-essential amino acids. In the case of HEK293-OATP1B1, -OATP1B3, and MATE2-K cells, 2 mM sodium butyrate was added to the culture medium to enhance transport activity. Cells were seeded at 2 × 10^5 cells/well in poly-D-lysine-coated 24-well plates. After 24 h, the growth medium was discarded, and attached cells were washed with HBSS and preincubated for 20 min in HBSS at 37 °C. Stock solutions of α- and β-amanitin and representative inhibitors of transporters were diluted in HBSS to make the final concentration: cimetidine 1 mM (for OCT2), cimetidine 100 μM (for MATE2-K), probenecid 100 μM (for OAT1 and OAT3), and rifampin 100 μM (for OATP1B1 and OATP1B3). Uptake of 50 μM α- and β-amanitin was measured in the absence and presence of representative inhibitors for 5 min at 37 °C. Plates were placed immediately on ice, and cells were then washed twice with 1 mL of ice-cold HBSS. Residual HBSS was removed thoroughly from the plates. Subsequently, 150 μL of 80% methanol containing IS was added to each sample well, and the cell plates were shaken gently for 20 min at 4 °C. The remaining steps were the same as described for plasma sample preparation.

[1] = humans, cited from earlier work; for Concentration in the kidney of amatoxin-intoxicated patients / Concentration in the liver of amatoxin-intoxicated patients: 4 cases; for Plasma concentrations in amatoxin-intoxicated patients: detected in 11 of 43 patients exposed within 36 h; for Total amount excreted in urine in amatoxin-intoxicated patients: measured in 24 patients out of 35 cases
Protocol: In humans, the plasma and urinary concentrations of α- and β-amanitin were detected in cases of suspected amatoxin poisoning. Among 43 amatoxin-intoxicated patients, amanitin was detected in 11 patients who were exposed to amatoxin within 36 h. The plasma concentrations were 8–190 ng/mL for α-amanitin and 15.9–162 ng/mL for β-amanitin [26]. The total amount of α- and β-amanitin excreted in urine were measured in 24 patients out of 35 cases, and a highly variable amount of α- and β-amanitin was recovered from the urine: 0.03–3.29 mg for α-amanitin and 0.05–5.21 mg for β-amani ... || The intestinal tract, liver, and kidney are vulnerable to amanitin toxicity and also express drug-metabolizing enzymes and transporters that regulate the absorption, distribution, metabolism, and excretion of endogenous substrates and xenobiotics. […] Inhibition of CYP1A2, CYP2C8, CYP2C9, CYP2C19, and CYP3A4 at 100 μM in HLMs was almos ...

[2] = mice, oral administration at doses of 2, 5, or 10 mg/kg; cited from earlier work
Protocol: Amanita phalloides poisoning can cause acute hepatitis, leading to the rapid development of liver insufficiency and ultimately coma and death. Nephrotoxicity is reported less frequently. Yilmaz et al. reported that an oral intake of approximately 50 g of fresh Amanita phalloides, representing a dose of 0.32 mg/kg of amatoxins, can be lethal. A few reports are available that describe the toxicokinetics of α- and β-amanitin after the oral administration of toadstool extract to beagle dogs and rats. In addition, the toxicokinetics of α-amanitin were investi ...

| Compound | IC50 (OAT3) | Uptake into HEK293-OATP1B3 cells compared with HEK293 control cells (transport substrate) (OATP1B3) | Concentration in the kidney of amatoxin-intoxicated patients [1] | Concentration in the liver of amatoxin-intoxicated patients [1] | Plasma concentrations in amatoxin-intoxicated patients [1] | Total amount excreted in urine in amatoxin-intoxicated patients [1] | Absolute bioavailability [2] |
| --- | --- | --- | --- | --- | --- | --- | --- |
| CC[C@H](C)[C@@H]1NC(=O)CNC(=O)[C@@H]2Cc3c([nH]c4cc(O)ccc34)[S@+]([O-])C[C@H](NC(=O)CNC1=O)C(=O)N[C@@H](CC(=O)O)C(=O)N1C[C@H](O)C[C@H]1C(=O)N[C@@H]([C@@H](C)[C@@H](O)CO)C(=O)N2 [β-amanitin] | 37.4 µM | significantly increased; also recorded: substrate | 1017–1391 ng/g kidney | 170.8–3298 ng/g liver | 15.9 to 162 ng/mL | 0.05 to 5.21 mg | – |
| α-amanitin [reference compound] | – | significantly increased | 122–1719 ng/g kidney | 10–19 ng/g liver | 8 to 190 ng/mL | 0.03 to 3.29 mg | 3.5–4.8% |
